Reference: PubChem BioAssay AID1963435 (Molecular Pharmacology Branch, DTP, NCI, 2024)

System: PANC-1 complex spheroid growth, percent test/control
Experiment: Anticancer human tumor PANC-1 cell line growth inhibition [Asc];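 further: spheroids exposed to agents for 7 days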;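 on viability, T/C: percent viability relative to DMSO vehicle wells taken as 100%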
Conditions: for IC50: curve of first compound; for viability, T/C: stronger effect = lower value
Method in brief: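 Concentration series start at each agent's clinical Cmax, or at 10 microM when none is established, and drop in half-log steps; agents are applied alone or together to complex spheroids built with HUVEC and hMSC.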

SMILES: Cc1nc(N2CCC3(CC2)COC(C)C3N)c(CO)nc1Sc1ccnc(N)c1Cl (stereo unspecified) + CCN1C(C(=O)NC23CCC(C(=O)O)(CC2)CC3)C(c2cccc(Cl)c2F)C2(C(=O)Nc3cc(Cl)ccc32)C12CCCCC2
- IC50 (second compound 0.00949 µM): > 3 µM
- IC50 (second compound 0.03 µM): > 3 µM
- IC50 (second compound 0.0949 µM): > 3 µM
- IC50 (second compound 0.3 µM): > 3 µM
- IC50 (second compound 0.949 µM): > 3 µM
- IC50 (second compound 3 µM): > 3 µM
- viability, T/C (second compound 0.00949 µM, first compound 0.00949 µM): 109%
- viability, T/C (second compound 0.00949 µM, first compound 0.03 µM): 95.8%
- viability, T/C (second compound 0.00949 µM, first compound 0.0949 µM): 92.8%
- viability, T/C (second compound 0.00949 µM, first compound 0.3 µM): 87.7%
- viability, T/C (second compound 0.00949 µM, first compound 0.949 µM): 92.1%
- viability, T/C (second compound 0.00949 µM, first compound 3 µM): 92.6%
- viability, T/C (second compound 0.03 µM, first compound 0.00949 µM): 102%
- viability, T/C (second compound 0.03 µM, first compound 0.03 µM): 101%
- viability, T/C (second compound 0.03 µM, first compound 0.0949 µM): 98.7%
- viability, T/C (second compound 0.03 µM, first compound 0.3 µM): 89.5%
- viability, T/C (second compound 0.03 µM, first compound 0.949 µM): 90%
- viability, T/C (second compound 0.03 µM, first compound 3 µM): 94.1%
- viability, T/C (second compound 0.0949 µM, first compound 0.00949 µM): 103%
- viability, T/C (second compound 0.0949 µM, first compound 0.03 µM): 102%
- viability, T/C (second compound 0.0949 µM, first compound 0.0949 µM): 98.6%
- viability, T/C (second compound 0.0949 µM, first compound 0.3 µM): 92%
- viability, T/C (second compound 0.0949 µM, first compound 0.949 µM): 93.7%
- viability, T/C (second compound 0.0949 µM, first compound 3 µM): 91.3%
- viability, T/C (second compound 0.3 µM, first compound 0.00949 µM): 98.7%
- viability, T/C (second compound 0.3 µM, first compound 0.03 µM): 98.1%
- viability, T/C (second compound 0.3 µM, first compound 0.0949 µM): 94.5%
- viability, T/C (second compound 0.3 µM, first compound 0.3 µM): 96.7%
- viability, T/C (second compound 0.3 µM, first compound 0.949 µM): 106%
- viability, T/C (second compound 0.3 µM, first compound 3 µM): 99.2%
- viability, T/C (second compound 0.949 µM, first compound 0.00949 µM): 113%
- viability, T/C (second compound 0.949 µM, first compound 0.03 µM): 91.9%
- viability, T/C (second compound 0.949 µM, first compound 0.0949 µM): 108%
- viability, T/C (second compound 0.949 µM, first compound 0.3 µM): 101%
- viability, T/C (second compound 0.949 µM, first compound 0.949 µM): 108%
- viability, T/C (second compound 0.949 µM, first compound 3 µM): 92.9%
- viability, T/C (second compound 3 µM, first compound 0.00949 µM): 115%
- viability, T/C (second compound 3 µM, first compound 0.03 µM): 116%
- viability, T/C (second compound 3 µM, first compound 0.0949 µM): 103%
- viability, T/C (second compound 3 µM, first compound 0.3 µM): 108%
- viability, T/C (second compound 3 µM, first compound 0.949 µM): 110%
- viability, T/C (second compound 3 µM, first compound 3 µM): 103%

SMILES: CCN1CCN(Cc2ccc(Nc3ncc(F)c(-c4cc(F)c5nc(C)n(C(C)C)c5c4)n3)nc2)CC1 + CCN1C(C(=O)NC23CCC(C(=O)O)(CC2)CC3)C(c2cccc(Cl)c2F)C2(C(=O)Nc3cc(Cl)ccc32)C12CCCCC2
- IC50 (second compound 0.00949 µM): > 1 µM
- IC50 (second compound 0.03 µM): > 1 µM
- IC50 (second compound 0.0949 µM): > 1 µM
- IC50 (second compound 0.3 µM): > 1 µM
- IC50 (second compound 0.949 µM): > 1 µM
- IC50 (second compound 3 µM): > 1 µM
- viability, T/C (second compound 0.00949 µM, first compound 0.00316 µM): 112%
- viability, T/C (second compound 0.00949 µM, first compound 0.01 µM): 102%
- viability, T/C (second compound 0.00949 µM, first compound 0.0316 µM): 109%
- viability, T/C (second compound 0.00949 µM, first compound 0.1 µM): 117%
- viability, T/C (second compound 0.00949 µM, first compound 0.316 µM): 126%
- viability, T/C (second compound 0.00949 µM, first compound 1 µM): 139%
- viability, T/C (second compound 0.03 µM, first compound 0.00316 µM): 105%
- viability, T/C (second compound 0.03 µM, first compound 0.01 µM): 97.8%
- viability, T/C (second compound 0.03 µM, first compound 0.0316 µM): 114%
- viability, T/C (second compound 0.03 µM, first compound 0.1 µM): 114%
- viability, T/C (second compound 0.03 µM, first compound 0.316 µM): 131%
- viability, T/C (second compound 0.03 µM, first compound 1 µM): 141%
- viability, T/C (second compound 0.0949 µM, first compound 0.00316 µM): 108%
- viability, T/C (second compound 0.0949 µM, first compound 0.01 µM): 108%
- viability, T/C (second compound 0.0949 µM, first compound 0.0316 µM): 105%
- viability, T/C (second compound 0.0949 µM, first compound 0.1 µM): 105%
- viability, T/C (second compound 0.0949 µM, first compound 0.316 µM): 125%
- viability, T/C (second compound 0.0949 µM, first compound 1 µM): 140%
- viability, T/C (second compound 0.3 µM, first compound 0.00316 µM): 99.8%
- viability, T/C (second compound 0.3 µM, first compound 0.01 µM): 131%
- viability, T/C (second compound 0.3 µM, first compound 0.0316 µM): 110%
- viability, T/C (second compound 0.3 µM, first compound 0.1 µM): 117%
- viability, T/C (second compound 0.3 µM, first compound 0.316 µM): 124%
- viability, T/C (second compound 0.3 µM, first compound 1 µM): 150%
- viability, T/C (second compound 0.949 µM, first compound 0.00316 µM): 102%
- viability, T/C (second compound 0.949 µM, first compound 0.01 µM): 119%
- viability, T/C (second compound 0.949 µM, first compound 0.0316 µM): 121%
- viability, T/C (second compound 0.949 µM, first compound 0.1 µM): 111%
- viability, T/C (second compound 0.949 µM, first compound 0.316 µM): 128%
- viability, T/C (second compound 0.949 µM, first compound 1 µM): 140%
- viability, T/C (second compound 3 µM, first compound 0.00316 µM): 116%
- viability, T/C (second compound 3 µM, first compound 0.01 µM): 125%
- viability, T/C (second compound 3 µM, first compound 0.0316 µM): 118%
- viability, T/C (second compound 3 µM, first compound 0.1 µM): 124%
- viability, T/C (second compound 3 µM, first compound 0.316 µM): 131%
- viability, T/C (second compound 3 µM, first compound 1 µM): 157%

SMILES: O=C(c1cc(Cc2n[nH]c(=O)c3ccccc23)ccc1F)N1CCN(C(=O)C2CC2)CC1 + CNC(C)C(=O)NC1CN(S(=O)(=O)c2cccc(S(=O)(=O)N3CCC4CCC(C(=O)NC(c5ccccc5)c5ccccc5)N4C(=O)C(NC(=O)C(C)NC)C3)c2)CCC2CCC(C(=O)NC(c3ccccc3)c3ccccc3)N2C1=O
- IC50 (second compound 0.00316 µM): > 10 µM
- IC50 (second compound 0.01 µM): > 10 µM
- IC50 (second compound 0.0316 µM): > 10 µM
- IC50 (second compound 0.1 µM): > 10 µM
- IC50 (second compound 0.316 µM): > 10 µM
- IC50 (second compound 1 µM): > 10 µM
- viability, T/C (second compound 0.00316 µM, first compound 0.0316 µM): 132%
- viability, T/C (second compound 0.00316 µM, first compound 0.1 µM): 111%
- viability, T/C (second compound 0.00316 µM, first compound 0.316 µM): 134%
- viability, T/C (second compound 0.00316 µM, first compound 1 µM): 133%
- viability, T/C (second compound 0.00316 µM, first compound 3.16 µM): 97.3%
- viability, T/C (second compound 0.00316 µM, first compound 10 µM): 63.4%
- viability, T/C (second compound 0.01 µM, first compound 0.0316 µM): 109%
- viability, T/C (second compound 0.01 µM, first compound 0.1 µM): 100%
- viability, T/C (second compound 0.01 µM, first compound 0.316 µM): 105%
- viability, T/C (second compound 0.01 µM, first compound 1 µM): 104%
- viability, T/C (second compound 0.01 µM, first compound 3.16 µM): 103%
- viability, T/C (second compound 0.01 µM, first compound 10 µM): 98.4%
- viability, T/C (second compound 0.0316 µM, first compound 0.0316 µM): 107%
- viability, T/C (second compound 0.0316 µM, first compound 0.1 µM): 96.2%
- viability, T/C (second compound 0.0316 µM, first compound 0.316 µM): 96.7%
- viability, T/C (second compound 0.0316 µM, first compound 1 µM): 110%
- viability, T/C (second compound 0.0316 µM, first compound 3.16 µM): 112%
- viability, T/C (second compound 0.0316 µM, first compound 10 µM): 91.2%
- viability, T/C (second compound 0.1 µM, first compound 0.0316 µM): 91.2%
- viability, T/C (second compound 0.1 µM, first compound 0.1 µM): 100%
- viability, T/C (second compound 0.1 µM, first compound 0.316 µM): 92.3%
- viability, T/C (second compound 0.1 µM, first compound 1 µM): 99.1%
- viability, T/C (second compound 0.1 µM, first compound 3.16 µM): 101%
- viability, T/C (second compound 0.1 µM, first compound 10 µM): 81.8%
- viability, T/C (second compound 0.316 µM, first compound 0.0316 µM): 103%
- viability, T/C (second compound 0.316 µM, first compound 0.1 µM): 103%
- viability, T/C (second compound 0.316 µM, first compound 0.316 µM): 89.2%
- viability, T/C (second compound 0.316 µM, first compound 1 µM): 95.4%
- viability, T/C (second compound 0.316 µM, first compound 3.16 µM): 99.2%
- viability, T/C (second compound 0.316 µM, first compound 10 µM): 93.3%
- viability, T/C (second compound 1 µM, first compound 0.0316 µM): 93.7%
- viability, T/C (second compound 1 µM, first compound 0.1 µM): 106%
- viability, T/C (second compound 1 µM, first compound 0.316 µM): 87.8%
- viability, T/C (second compound 1 µM, first compound 1 µM): 93.2%
- viability, T/C (second compound 1 µM, first compound 3.16 µM): 89.9%
- viability, T/C (second compound 1 µM, first compound 10 µM): 85.2%
